In patent publication US6200963A, “Aryl sulfonic acids as FSH antagonists” (American Home Products Corporation, priority 2000, dated 2001):
Where a name gives a salt, the structure may show the parent alone. Read-outs that look alike come from different tables or passages of the source.

Columns and labels:
FSH receptor [1] = molecular target: T1, FSH receptor (Homo sapiens, UniProt P23945); assay: FSH Receptor Radioligand Membrane Binding Assay ([125I]hFSH, CHO cell membranes); set-up: expressed in transfected cells; membrane homogenate; settings: for inhibition at 10 µM: read-out: % Inhibition at 10 μM conc.; for inhibition at 100 µM: read-out: % Inhibition at 100 μM conc.
T1 sequence (P23945 18-695): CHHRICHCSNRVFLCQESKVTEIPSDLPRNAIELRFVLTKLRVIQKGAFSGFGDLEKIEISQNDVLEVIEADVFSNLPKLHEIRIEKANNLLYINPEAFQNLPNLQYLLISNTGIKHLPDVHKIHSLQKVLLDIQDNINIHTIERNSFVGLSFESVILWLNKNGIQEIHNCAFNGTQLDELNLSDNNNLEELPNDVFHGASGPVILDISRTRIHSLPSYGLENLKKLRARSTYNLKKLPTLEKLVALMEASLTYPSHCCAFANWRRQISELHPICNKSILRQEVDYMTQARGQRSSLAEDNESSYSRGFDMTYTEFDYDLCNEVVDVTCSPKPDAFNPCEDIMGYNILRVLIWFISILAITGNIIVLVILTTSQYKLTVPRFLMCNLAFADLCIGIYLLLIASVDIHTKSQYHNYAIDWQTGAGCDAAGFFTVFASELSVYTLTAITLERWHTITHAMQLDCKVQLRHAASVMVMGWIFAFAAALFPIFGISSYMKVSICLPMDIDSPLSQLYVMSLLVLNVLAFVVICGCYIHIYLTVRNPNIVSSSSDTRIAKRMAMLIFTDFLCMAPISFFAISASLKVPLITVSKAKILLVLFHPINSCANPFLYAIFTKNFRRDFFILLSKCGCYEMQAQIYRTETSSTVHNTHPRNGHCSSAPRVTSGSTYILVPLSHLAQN
Description: FSH Receptor Radioligand Membrane Binding Assay
Membrane Source: Chinese hamster ovarian cells stably transfected with the human FSH receptor were cultured (Ultra CHO medium containing 1% fetal bovine serum and 200 μg/mL G418) in and harvested. Cells were collected by centrifugation and resulting cell pellets were frozen and stored at -70° C.
Membrane Receptor Preparation: Frozen cell pellets were weighed and resuspended in binding buffer to a final concentration of 30 mg wet weight/mL. Cell suspension for each pellet was homogenized using a Tempest homogenizer (setting=1; 5 strokes; VirTis, Gardiner, N.Y.). Cell homogenates were pooled and 35 mL aliquots were transferred to 50-mL polypropylene copolymer centrifuge tubes (Nalgene cat. #3110-0500). Tubes were spun at 12,000 rpm (SS34 rotor) for 12 min at 4° C. Resulting supernatant fractions were discarded and pellets were stored at -70° C. until use. On the day of the assay, 35 mL binding buffer was added to each tube (35 mL membrane suspension was sufficient for three 96-well plates). The membrane pellet was dispersed by trituration using a pipet. The resulting suspension was homogenized using a Tempest homogenizer (3 strokes at setting=1).
Receptor Binding Assay: Membrane homogenate (100 μl) was added to each well of a 96-well microtiter plate (Falcon # 3077). All reactions were tested in triplicate. Test compound solutions (50 μl) were added to the designated wells. Total bound counts were determined by adding 50 μl binding buffer containing 4% DMSO to the designated wells. […] Plates were pre-incubated for 15 min at room temperature on shaking platform (setting=3). After preincubation [^125 I]FSH (50 μl) was added to each well and plates were incubated for 2 h at room temperature on shaking platform (setting=3). The reaction was terminated by transfer of the membrane preparation to glass fiber filters (Blue Mat #11740; 102×256 mm; Skatron Instruments, Sterling, Va.) that had been pretreated with 1% BSA in wash buffer for at least 30 min, but not longer than 1 h using a 96-well microtiter vacuum harvester (Skatron Instruments). The membrane preparation was washed with 5 cycles of ice-cold wash buffer (200 μl/well/cycle) followed by a pulse wash of 3 cycles (100 μl/well/cycle). The total wash volume per well was 1.3 mL. The filters were dried by a 10 sec aspiration. Disks corresponding to each well of the microtiter plate were punched out of the filter mat into 12×75 mm polypropylene tubes. The radioactivity present on each of the disks was measured using a gamma counter.
An FSH dose response curve (0.001, 0.01, 0.1, 1, 10, and 100 nM) was generated for each binding assay to monitor assay to assay variability.
FSH Receptor Radioligand Membrane Binding Assay Buffers and Reagents
Binding Buffer (pH 7.2): 10 mM Trizma®-HCl (Sigma)
Binding buffer was prepared in 1 l volumes containing Trizma-HCl, MgCl2, CaCl2 and sodium azide, the pH was adjusted to 7.2 with NaOH, and stored at 4° C. until use. BSA was weighed out on the day of the assay and added to the amount of buffer required for the assay (usually 150 mL). The protease inhibitors were prepared as 1 mg/mL stocks (aprotinin, leupeptin, and phosphoramidon were prepared in binding buffer without BSA and protease inhibitors; pepstatin and PMSF were prepared in methanol), stored in 1 mL aliquots at -70° C., and added to the binding buffer on the day of the assay.
Wash Buffer (pH 7.2): 50 mM Trizma®-HCl (Sigma)
Wash buffer was prepared containing Trizma-HCl, MgCl2 and EDTA, the pH was adjusted to 7.2 with NaOH, and stored at 4° C.
Filter Soak Buffer (pH 7.2): Wash Buffer
BSA was weighed out on the day of the assay and added to 300 mL of wash buffer. The filter soak buffer was used for two assays before being discarded.
A portion of the stock solution was diluted in binding buffer to a concentration of 200 pM. […]

FSH receptor [2] = molecular target: T2, FSH receptor (Rattus norvegicus, UniProt P20395); assay: In Vitro Bioassay of Agonists and Antagonists to the FSH Receptor using Primary Cultures of Rat Granulosa (estradiol secretion); format: cell-based; set-up: immature female Sprague-Dawley rats (Charles River Laboratories, Wilmington, Mass.) were used as donors for ovarian granulosa cells; endogenous in cells; host or cells: primary ovarian granulosa cells of immature female Sprague-Dawley rats; settings: antagonist mode; ED50 of FSH (0.5 ng/mL), rat granulosa cells, 72 h; read-out: IC50 (half-maximal inhibition of FSH-induced estradiol secretion)
T2 sequence (P20395 18-692): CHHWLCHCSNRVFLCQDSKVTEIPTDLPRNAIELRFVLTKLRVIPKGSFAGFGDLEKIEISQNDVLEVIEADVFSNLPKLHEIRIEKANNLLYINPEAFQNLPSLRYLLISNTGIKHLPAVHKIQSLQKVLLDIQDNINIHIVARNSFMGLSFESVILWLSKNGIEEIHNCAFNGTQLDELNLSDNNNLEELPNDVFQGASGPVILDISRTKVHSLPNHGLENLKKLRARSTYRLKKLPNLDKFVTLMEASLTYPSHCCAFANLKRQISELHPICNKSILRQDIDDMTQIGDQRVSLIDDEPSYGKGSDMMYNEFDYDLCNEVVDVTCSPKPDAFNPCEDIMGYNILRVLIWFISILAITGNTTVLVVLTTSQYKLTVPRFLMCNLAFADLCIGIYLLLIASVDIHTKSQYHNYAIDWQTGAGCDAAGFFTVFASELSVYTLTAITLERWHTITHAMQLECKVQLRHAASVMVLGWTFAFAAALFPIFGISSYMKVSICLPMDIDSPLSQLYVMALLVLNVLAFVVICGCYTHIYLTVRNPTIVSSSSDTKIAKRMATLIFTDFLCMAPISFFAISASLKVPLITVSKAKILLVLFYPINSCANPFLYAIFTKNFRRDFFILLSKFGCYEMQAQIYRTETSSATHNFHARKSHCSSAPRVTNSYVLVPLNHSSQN
Description: The concentration of vehicle was maintained constant throughout all dilutions.
Preparation of Granulosa Cells: Twenty-four day-old immature female Sprague-Dawley rats (Charles River Laboratories, Wilmington, Mass.) were used as donors for ovarian granulosa cells. The animals were treated by single daily injections of 100 mg/kg diethylstilbestrol (DES) in oil over three days. On the fourth day, animals were sacrificed by CO2 asphyxiation and the ovaries were removed. Ovaries were washed three times in 50 mL of sterile HEPES-buffered saline (HBS, pH 7.4). […] After the final spin, the cells were resuspended by gentle trituration in 25 mL serum-free medium, an aliquot counted in a hemocytometer and viability estimated by trypan blue exclusion. […]
Analysis of Results: Estradiol was expressed as pg/mL. […] Data were analyzed statistically by analysis of variance with Huber weighting of log transformed data. […]

FSH receptor [3] = molecular target: T1, FSH receptor; assay: In Vitro Bio-assay of Agonists and Antagonists to the FSH Receptor (cAMP accumulation in CHO-3D2 cells); format: cell-based; set-up: expressed in transfected cells; host or cells: CHO-3D2 cells
Description: Preparation of CHO-3D2 Cells; CHO-3D2 cells were plated into 96-well Nunc tissue culture plates at a density of 30,000 cells/well in DMEM/F12 medium (Gibco/BRL, Grand Island, N.Y.) supplemented with 5% Fetal Bovine Serum (Hyclone, Fetal Clone II), 2 mM L-glutamine and penicillin/streptomycin (100 U/mL).
The plate was split in half to test a single compound in both agonist and antagonist mode on the same plate.
For agonist mode, compounds were tested using 5 different concentrations in a dose-response paradigm using one column as a control (challenge medium alone) in agonist mode.
The 96-well format allowed for the capability to test 4 columns of compound, using one of the remaining columns for negative control (challenge medium alone) and the other remaining column for ampositive control (ED20 of FSH alone).
The doses chosen to test each compound were extrapolated from the initial screening process (receptor binding data).
Data were analyzed statistically by analysis of variance and significant differences between treatments and control determined by Dunnett's test. In antagonist mode, a Duncan's test was used.
Reference Compounds: Test compounds were compared to the effect of purified or recombinant human FSH.

testosterone production [4] = settings: humans administered suramin; in words; cited from earlier work
FSH receptor [5] = molecular target: T2, FSH receptor; settings: literature, in words; cited from earlier work
testosterone production [6] = settings: rats administered suramin; in words; cited from earlier work
[7] = 10 μM, [125I]hFSH binding, CHO membranes with human FSH receptor
[8] = 100 μM, [125I]hFSH binding, CHO membranes with human FSH receptor
[9] = antagonist mode, hFSH-induced cAMP accumulation (ED20 of FSH, […]), CHO-3D2 cells, 30 min

| SMILES | inhibition at 10 µM (FSH receptor [1]; [7]) [%] | inhibition at 100 µM (FSH receptor [1]; [8]) [%] | IC50 (FSH receptor [1]) [µM] | also measured |
| --- | --- | --- | --- | --- |
| COc1ccc(N=Nc2c(S(=O)(=O)O)cc3cc(Nc4nc(Cl)nc(N(CCC(N)=O)CCC(N)=O)n4)ccc3c2O)cc1 [Example 9, 7-{4-[Bis-(2-carbamoyl-ethyl)-amino]-6-chloro-[1,3,5]-triazin-2-ylamino)-4-hydroxy-3-(4-methoxy-phenylazo)-napthalene-2-sulfonic Acid, Sodium Salt] | 74 | 94 |  | % Inhibition at 10 μM conc. (FSH receptor [1]; 10 μM, [125I]hFSH binding, CHO membranes with human FSH receptor, Sodium Salt): 66%; % Inhibition at 100 μM conc. (FSH receptor [1]; 100 μM, [125I]hFSH binding, CHO membranes with human FSH receptor, Sodium Salt): 98%; IC50 (FSH receptor [1]; [125I]hFSH binding, CHO membranes with human FSH receptor, Sodium Salt): 5 µM; IC50 (FSH receptor [1]; [125I]hFSH binding, CHO membranes with human FSH receptor, listed as 3, Sodium Salt): 6 µM; IC50 (FSH receptor [2]): 1.9 µM; IC50 (FSH receptor [3]; [9]): 1.4 µM |
| COc1ccc(N=Nc2c(S(=O)(=O)O)cc3cc(Nc4nc(Cl)nc(N(CCO)CCO)n4)ccc3c2O)cc1 [Example 11, 7-{4-[Bis-(2-hydroxy-ethyl)-amino]-6-chloro-[1,3,5]-triazin-2-ylamino)-4-hydroxy-3-(4-methoxy-phenylazo)-napthalene-2-sulfonic Acid, Sodium Salt] | 29 | 71 |  | IC50 (FSH receptor [1]; [125I]hFSH binding, CHO membranes with human FSH receptor): 8.6 µM; IC50 (FSH receptor [3]; [9]): 10 µM |
| COc1ccc(N=Nc2c(S(=O)(=O)O)cc3cc(NC(=O)c4ccc(N(C)C)cc4)ccc3c2O)cc1 [Example 12, 7-(4-Dimethylamino-benzoylamino)-4-hydroxy-3-(4-methoxy-phenylazo)-napthalene-2-sulfonic Acid, Sodium Salt] |  |  | 101 |  |
| COc1ccc(N=Nc2c(S(=O)(=O)O)cc3cc(NC(=O)c4cc(OC)cc(OC)c4)ccc3c2O)cc1 [Example 14, 7-(3,5-Dimethoxy-benzoylamino)-4-hydroxy-3-(4-methoxy-phenylazo)-napthalene-2-sulfonic Acid] | 14 | 60 | 81 |  |
| COc1ccc(N=Nc2c(S(=O)(=O)O)cc3cc(NC(=O)c4ccccc4)ccc3c2O)cc1 [Example 16, 7-Benzoylamino-4-hydroxy-3-(4-methoxy-phenylazo)-napthalene-2-sulfonic Acid] | 11 | 76 | 79 |  |
| COc1ccc(N=Nc2c(S(=O)(=O)O)cc3cc(NC(=O)c4c(OC)cccc4OC)ccc3c2O)cc1 [Example 18, 7-(2,6-Dimethoxy-benzoylamino)-4-hydroxy-3-(4-methoxy-phenylazo)-napthalene-2-sulfonic Acid] | 10 | 8 |  |  |
| COc1ccc(N=Nc2c(S(=O)(=O)O)cc3cc(NC(=O)c4ccc(OC)c(OC)c4)ccc3c2O)cc1 [Example 19, 7-(3,4-Dimethoxy-benzoylamino)-4-hydroxy-3-(4-methoxy-phenylazo)-napthalene-2-sulfonic Acid] | 19 | 100 | 14 | IC50 (FSH receptor [3]): 16 µM |
| Cc1ccc(C(=O)Nc2ccc(S(=O)(=O)O)c3cc(S(=O)(=O)O)cc(S(=O)(=O)O)c23)cc1NC(=O)c1cccc(NC(=O)Nc2cccc(C(=O)Nc3cc(C(=O)Nc4ccc(S(=O)(=O)O)c5cc(S(=O)(=O)O)cc(S(=O)(=O)O)c45)ccc3C)c2)c1 [suramin] |  |  |  | testosterone production (testosterone production [4]): decrease in testosterone production; inhibition of FSH binding to its receptor (FSH receptor [5]): inhibit FSH binding to its receptor; testosterone production (testosterone production [6]): decrease in testosterone production |
